US12172974B2 (Biohaven Pharmaceutical Holding Company Ltd., priority 2012, dated 2024)
“Also recorded” adds a separate entry of the source.

Experiments:
[1] = test system: Stage III and IV melanoma; conditions: 14 days of treatment; cited from earlier work
[2] = Plasma stability in fresh human plasma; assay type: in vitro ADME; conditions: 1 uM, 37° C.
Method: (§1) Plasma Stability: Assessment of plasma stability was carried out by individual incubations of drug candidates in fresh mouse or human control plasma at a concentration of 1 uM for 1 hour at 37° C. After which, the samples were de-proteinized by addition of 2 volumes of acetonitrile containing 0.1% formic acid and internal standard, vortex mixed for 2 minutes and centrifuged at 4000 rpm for 10 minutes to pellet precipitated protein. The resulting supernatant containing the drug candidates was diluted 5-fold with water containing 0.1% formic acid and submitted to LC-MS/MS analysis. All determinations were done in triplicate. […]
(§2) LC-MS/MS Analysis: An aliquot from each incubation was analyzed by LC-MS/MS with SRM detection in the positive ionization mode using an ABSciex API 5500 QTrap Mass Spectrometer interfaced via the ABSciex Turbo V IonSpray source (ESI) to an Eksigent ExpressHT LC system. […] A fast gradient, from 15 to 85% organic in 2.5 minutes, with run time of 5.0 minutes, and flow rate of 50 ul/min was utilized. Peak areas were integrated using MultiQuant v2.0 software from ABSciex.

[3] = Stability in Simulated Intestinal Fluid (SIF); assay type: in vitro ADME; conditions: 37° C., 0.01 mg/mL
Method: (§3) Stability in Simulated Gastric Fluid (SGF) and Simulated Intestinal Fluid (SIF). Procedure from Baudy et. al. (J. Med. Chem. 2009, 52, 771-778) used. The physiological stability of prodrugs was determined by examining the stability of the compound in SGF, and SIF at 37° C. The compounds were prepared in a 9:1 mixture of the appropriate test component (SGF, SIF) and acetonitrile to a final concentration of 0.01 mg/mL. The samples were thoroughly mixed and maintained at 37° C. Each sample was injected consecutively onto an Agilent 1100 system (Luna C18, 3 μm, 50 mm×3 mm; 1 mL/min; mobile phase of 0.1% trifluoroacetic acid in water/0.1% trifluoroacetic acid in acetonitrile) after a 3 h period. The percent remaining of prodrug was calculated by comparing the area of prodrug compound versus riluzole generated. The identities of the parent compounds and conversion products were confirmed by LC/MS.

[4] = Stability in Simulated Gastric Fluid (SGF); assay type: in vitro ADME; conditions: 37° C., 0.01 mg/mL
Method: as §3

[5] = Metabolic stability in pooled mouse liver microsomes; assay type: in vitro ADME; conditions: mouse liver microsomes 0.5 mg/mL, 1 uM, 37° C., NADPH
Method: (§4) Metabolic Stability: In vitro metabolic stability was determined in pooled mouse or human liver microsomes (BD Gentest) at a protein concentration of 0.5 mg/mL in reaction buffer (100 mM KH2PO4, pH 7.4 and 12 mM MgCl2). Each drug candidate was added to a final concentration of 1 uM. This mixture was pre-warmed to 37° C. for 10 minutes prior to starting the reaction with the addition of β-Nicotinamide adenine dinucleotide 2′-phosphate reduced (NADPH) to a final concentration of 1 mM. A parallel incubation lacking NADPH served as the control. After incubation for 30 min at 37° C., the reactions were quenched by the addition of acetonitrile containing 0.1% formic acid and internal standard, vortex mixed for 2 minutes and centrifuged at 4000 rpm for 10 minutes to pellet the precipitated protein. The resulting supernatant containing the drug candidate and its potential metabolites was diluted 5-fold with water containing 0.1% formic acid and submitted to LC-MS/MS analysis. […]
as §2

[6] = Metabolic stability in pooled human liver microsomes; assay type: in vitro ADME; conditions: human liver microsomes 0.5 mg/mL, 1 uM, 37° C., NADPH
Method: as §4, §2

[7] = Plasma stability in fresh mouse plasma; assay type: in vitro ADME; conditions: 1 uM, 37° C.
Method: as §1, §2

Plasma Stability Human (1 hour): percent of prodrug metabolized to riluzole [2] | SIF (3 hours): percent of prodrug metabolized to riluzole [3] | SGF (3 hours): percent of prodrug metabolized to riluzole [4] | Metabolic Stability mouse (30 minutes): percent of prodrug metabolized to riluzole [5] | Metabolic Stability human (30 minutes): percent of prodrug metabolized to riluzole [6] | Plasma Stability mouse (1 hour): percent of prodrug metabolized to riluzole [7] | Compound | patients with clinical or radiologic evidence of tumor response [1]
 |  |  |  |  |  | Nc1nc2ccc(OC(F)(F)F)cc2s1 [riluzole, 6-(trifluoromethoxy)-1,3-benzothiazol-2-amine] | four of twelve; also recorded: four of 12
5% | 0% | 0% | 66% | 19% | 0% | NCCCCC(=O)Nc1nc2ccc(OC(F)(F)F)cc2s1 [Cpd 26, 5-Amino-pentanoic acid (6-trifluoromethoxy-benzothiazol-2-yl)-amide] | 
13% | 0% | 0% | 59% | 22% | 0% | O=C(Cc1ccccc1[N+](=O)[O-])Nc1nc2ccc(OC(F)(F)F)cc2s1 [Cpd 27, 2-(2-Nitro-phenyl)-N-(6-trifluoromethoxy-benzothiazol-2-yl)-acetamide] | 
0% | 0% | 0% | 78% | 0% | 0% | CNCCCCC(=O)Nc1nc2ccc(OC(F)(F)F)cc2s1 [Cpd 25, 5-Methylamino-pentanoic acid (6-trifluoromethoxy-benzothiazol-2-yl)-amide] | 
0% | 10% | 0% | 0% | 4% | 26% | O=C(CCC(=O)Nc1nc2ccc(OC(F)(F)F)cc2s1)NCc1cccnc1 [Cpd 23, N-Pyridin-3-ylmethyl-N′-(6-trifluoromethoxy-benzothiazol-2-yl)-succinamide] | 
0% | 0% | 0% | 0% | 21% | 0% | CC(C)(C)OC(=O)CCC(=O)Nc1nc2ccc(OC(F)(F)F)cc2s1 [Cpd 22, N-(6-Trifluoromethoxy-benzothiazol-2-yl)-succinamic acid tert-butyl ester] | 
0% | 0% | 0% | 53% | 13% | 9% | CCCCOC(=O)Nc1nc2ccc(OC(F)(F)F)cc2s1 [Cpd 15, (6-Trifluoromethoxy-benzothiazol-2-yl)-carbamic acid butyl ester] | 
9% | 0% | 0% | 0% | 15% | 52% | N[C@@H](COCc1ccccc1)C(=O)Nc1nc2ccc(OC(F)(F)F)cc2s1 [Cpd 10, (S)-2-Amino-3-benzyloxy-N-(6-trifluoromethoxy-benzothiazol-2-yl)-propionamide] | 
0% | 0% | 0% | 13% | 10% | 3% | CN(C)CCOC(=O)Nc1nc2ccc(OC(F)(F)F)cc2s1 [Cpd 18, (6-Trifluoromethoxy-benzothiazol-2-yl)-carbamic acid 2-dimethylamino-ethyl ester] | 
6% | 0% | 3% | 12% | 18% | 47% | N[C@H](Cc1ccccc1)C(=O)Nc1nc2ccc(OC(F)(F)F)cc2s1 [Cpd 4, (R)-2-Amino-3-phenyl-N-(6-trifluoromethoxy-benzothiazol-2-yl)-propionamide] | 
